Test results reported in PubChem BioAssay AID328 (DTP/NCI, 2004).
“And” between values parts separate entries of the source, which are not always exact repeats. Equal entries are not always repeated. Toxic doses and inconclusive results are not listed.

Test system: BDF1 mice, P388 leukemia ip, median survival T/C
Test: NCI In Vivo Anticancer Drug Screen. Data for tumor model P388 Leukemia (intraperitoneal) in B6D2F1 (BDF1) mice
Conditions: endpoint: median survival time, higher = longer survival
In short: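 Vehicle-dosed animals serve as the reference; survival of compound-dosed, tumour-implanted mice is divided by it.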

[1] = dose: 25.0 mg/kg/injection, schedule: Q04DX003 (ip), vehicle: saline with Tween-80
[2] = dose: 50.0 mg/kg/injection, schedule: Q04DX003 (ip), vehicle: saline with Tween-80
[3] = dose: 100.0 mg/kg/injection, schedule: Q04DX003 (ip), vehicle: saline with Tween-80
[4] = dose: 200.0 mg/kg/injection, schedule: Q04DX003 (ip), vehicle: saline with Tween-80

SMILES: O=C(CBr)N1CCC2(CC1)SSC1(CCN(C(=O)CBr)CC1)S2
- T/C (dose: 3.12 mg/kg/injection, schedule: Q01DX009 (ip), vehicle: saline with Tween-80): 112 % of control
- T/C (dose: 6.25 mg/kg/injection, schedule: Q01DX009 (ip), vehicle: saline with Tween-80): 95 % of control and 111 % of control
- T/C (dose: 10.0 mg/kg/injection, schedule: Q04DX003 (ip), vehicle: saline with Tween-80): 122 % of control
- T/C (dose: 20.0 mg/kg/injection, schedule: Q04DX003 (ip), vehicle: saline with Tween-80): 120 % of control
- T/C [1]: 123 % of control
- T/C (dose: 40.0 mg/kg/injection, schedule: Q04DX003 (ip), vehicle: saline with Tween-80): 114 % of control
- T/C [2]: 113 % of control
- T/C (dose: 100.0 mg/kg/injection, schedule: Q01DX009 (ip), vehicle: saline with Tween-80): 112 % of control
- T/C [3]: 118 % of control
- T/C [4]: 102 % of control

SMILES: CCC1NC(=O)C(NC(=O)c2ncccc2O)C(C)OC(=O)C(c2ccccc2)NC(=O)C2CC(=O)CCN2C(=O)C(Cc2ccccc2)N(C)C(=O)C2CCCN2C1=O (stereo not drawn) (tested in a mixture with another compound)
- T/C (dose: 18.75 mg/kg/injection, schedule: Q01DX009 (ip), vehicle: Klucel (hydroxypropylcellulose) (HPC)): 99 % of control
- T/C (dose: 37.5 mg/kg/injection, schedule: Q01DX009 (ip), vehicle: Klucel (hydroxypropylcellulose) (HPC)): 105 % of control
- T/C (dose: 75.0 mg/kg/injection, schedule: Q01DX009 (ip), vehicle: Klucel (hydroxypropylcellulose) (HPC)): 111 % of control

SMILES: O=C(O)COCc1ccccc1
- T/C (dose: 100.0 mg/kg/injection, schedule: Q01DX001 (ip), vehicle: saline sonified): 100 % of control
- T/C (dose: 200.0 mg/kg/injection, schedule: Q01DX001 (ip), vehicle: saline sonified): 104 % of control
- T/C (dose: 400.0 mg/kg/injection, schedule: Q01DX001 (ip), vehicle: saline sonified): 117 % of control

SMILES: COc1cccc2c1C(=O)c1c(O)c3c(c(O)c1C2=O)CC(O)(C(C)=O)CC3OC1CC(NC(=O)CNC(=O)CN(C)C)C(O)C(C)O1 (stereo not drawn)
- T/C (dose: 1.56 mg/kg/injection, schedule: Q01DX009 (ip), vehicle: water): 101 % of control
- T/C (dose: 3.13 mg/kg/injection, schedule: Q01DX009 (ip), vehicle: water): 92 % of control
- T/C (dose: 6.25 mg/kg/injection, schedule: Q01DX009 (ip), vehicle: water): 101 % of control
- T/C (dose: 12.5 mg/kg/injection, schedule: Q01DX009 (ip), vehicle: water): 91 % of control

SMILES: Cc1cc(N/N=C/c2ccc(N(CCCl)CCCl)cc2)c2cc3c(cc2n1)OCO3
- T/C (dose: 12.5 mg/kg/injection, schedule: Q04DX003 (ip), vehicle: saline with Tween-80): 114 % of control
- T/C [1]: 105 % of control
- T/C [2]: 115 % of control

SMILES: Nc1cc2c3ccccc3ncc2c2ccccc12
- T/C [3]: 100 % of control
- T/C [4]: 100 % of control
- T/C (dose: 400.0 mg/kg/injection, schedule: Q04DX003 (ip), vehicle: saline with Tween-80): 100 % of control

SMILES: Clc1nc2ccccc2n2nnnc12
- T/C (dose: 5.0 mg/kg/injection, schedule: Q01DX009 (ip), vehicle: saline with Tween-80): 105 % of control
- T/C (dose: 10.0 mg/kg/injection, schedule: Q01DX009 (ip), vehicle: saline with Tween-80): 105 % of control
- T/C (dose: 12.5 mg/kg/injection, schedule: Q01DX009 (ip), vehicle: saline): 94 % of control
- T/C (dose: 20.0 mg/kg/injection, schedule: Q01DX009 (ip), vehicle: saline with Tween-80): 107 % of control
- T/C (dose: 25.0 mg/kg/injection, schedule: Q01DX009 (ip), vehicle: saline): 97 % of control

SMILES: Cc1ccc(CNc2ccccc2)cc1
- T/C (dose: 25.0 mg/kg/injection, schedule: Q04DX003 (ip), vehicle: other): 120 % of control
- T/C (dose: 50.0 mg/kg/injection, schedule: Q04DX003 (ip), vehicle: other): 105 % of control
- T/C (dose: 100.0 mg/kg/injection, schedule: Q04DX003 (ip), vehicle: other): 110 % of control

SMILES: CC(=O)Nc1ccc2nc3ccc(NC(C)=O)cc3[n+](-c3ccccc3)c2c1
- T/C (dose: 31.3 mg/kg/injection, schedule: Q01DX010 (ip), vehicle: saline): 168 % of control
- T/C (dose: 62.5 mg/kg/injection, schedule: Q01DX010 (ip), vehicle: saline): 172 % of control
- T/C (dose: 125.0 mg/kg/injection, schedule: Q01DX010 (ip), vehicle: saline): 181 % of control
- T/C (dose: 250.0 mg/kg/injection, schedule: Q01DX010 (ip), vehicle: saline): 150 % of control
